Source: ChEMBL document CHEMBL4270506, “Recent advances in drug discovery of phototherapeutic non-porphyrinic anticancer agents” (Eur J Med Chem, 2017)

Columns and labels:
[1] = system: PBMC; assay: Phototoxicity in human PBMC assessed as reduction in cell viability at 20 uM under irradiation with >500 nm light after 24 hrs by MTT assay; format: cell-based
[2] = Dark toxicity in human PBMC assessed as reduction in cell viability after 24 hrs by MTT assay; format: cell-based
[3] = system: B16-F10; assay: Phototoxicity in mouse B16F10 cells assessed as reduction in cell viability under irradiation with >500 nm light after 24 hrs by MTT assay; format: functional, cell-based; settings: B16-F10, light or radiation study
[4] = Dark toxicity in mouse B16F10 cells assessed as reduction in cell viability after 24 hrs by MTT assay; format: cell-based, B16-F10
[5] = Phototoxicity in human C8161 cells assessed as reduction in cell viability under irradiation with >500 nm light after 24 hrs by MTT assay; format: functional, cell-based; settings: C8161, light or radiation study
[6] = Dark toxicity in human C8161 cells assessed as reduction in cell viability after 24 hrs by MTT assay; format: cell-based
[7] = system: PBMC; assay: Phototoxicity in human PBMC assessed as reduction in cell viability under irradiation with >500 nm light after 24 hrs by MTT assay; format: cell-based; settings: light or radiation study
[8] = Dark toxicity in human MCF7/DX cells assessed as inhibition of cell growth at 1 uM after 24 hrs by MTT assay; format: cell-based; settings: read-out: GI
[9] = system: MCF7; assay: Phototoxicity in wild type human MCF7 cells assessed as inhibition of cell growth at 1 uM pre-incubated for 4 hrs before photoirradiation with 530 to 550 nm light and measured after 24 hrs post irradiation by MTT assay; format: functional; settings: MCF7, light or radiation study, read-out: GI
[10] = system: MCF7; assay: Phototoxicity in wild type human MCF7 cells assessed as inhibition of cell growth at 1 uM pre-incubated for 4 hrs before photoirradiation with 630 nm light and measured after 24 hrs post irradiation by MTT assay; format: functional; settings: MCF7, light or radiation study, read-out: GI
[11] = Phototoxicity in human MCF7/DX cells assessed as inhibition of cell growth at 1 uM pre-incubated for 4 hrs before photoirradiation with 630 nm light and measured after 24 hrs post irradiation by MTT assay; format: functional; settings: light or radiation study, read-out: GI
[12] = system: MCF7; assay: Phototoxicity in wild type human MCF7 cells assessed as inhibition of cell growth at 1 uM pre-incubated for 24 hrs before photoirradiation with 530 to 550 nm light and measured after 24 hrs post irradiation by MTT assay; format: functional; settings: MCF7, light or radiation study, read-out: GI
[13] = Phototoxicity in human MCF7/DX cells assessed as inhibition of cell growth at 1 uM pre-incubated for 24 hrs before photoirradiation with 630 nm light and measured after 24 hrs post irradiation by MTT assay; format: functional; settings: light or radiation study, read-out: GI
[14] = Phototoxicity in human MCF7/DX cells assessed as inhibition of cell growth at 1 uM pre-incubated for 24 hrs before photoirradiation with 530 to 550 nm light and measured after 24 hrs post irradiation by MTT assay; format: functional; settings: light or radiation study, read-out: GI
[15] = Dark toxicity in wild type human MCF7 cells assessed as inhibition of cell growth at 1 uM after 24 hrs by MTT assay; format: cell-based; settings: read-out: GI
[16] = Phototoxicity in human MCF7/DX cells assessed as inhibition of cell growth at 1 uM pre-incubated for 4 hrs before photoirradiation with 530 to 550 nm light and measured after 24 hrs post irradiation by MTT assay; format: functional; settings: light or radiation study, read-out: GI
[17] = system: MCF7; assay: Phototoxicity in wild type human MCF7 cells assessed as inhibition of cell growth at 1 uM pre-incubated for 24 hrs before photoirradiation with 630 nm light and measured after 24 hrs post irradiation by MTT assay; format: functional; settings: MCF7, light or radiation study, read-out: GI
[18] = system: HeLa; assay: Phototoxicity in human HeLa cells assessed as reduction in cell viability in presence of irradiation with 625 nm laser light by MTT assay; format: functional, cell-based; settings: light or radiation study
[19] = system: MCF7; assay: Phototoxicity in wild type human MCF7 cells assessed as inhibition of cell growth at 1 uM pre-incubated for 4 hrs before photoirradiation with 430 nm light and measured after 24 hrs post irradiation by MTT assay; format: functional; settings: MCF7, light or radiation study, read-out: GI
[20] = Phototoxicity in human MCF7/DX cells assessed as inhibition of cell growth at 1 uM pre-incubated for 24 hrs before photoirradiation with 430 nm light and measured after 24 hrs post irradiation by MTT assay; format: functional; settings: light or radiation study, read-out: GI
[21] = Phototoxicity in human MCF7/DX cells assessed as inhibition of cell growth at 1 uM pre-incubated for 4 hrs before photoirradiation with 430 nm light and measured after 24 hrs post irradiation by MTT assay; format: functional; settings: light or radiation study, read-out: GI
[22] = system: MCF7; assay: Phototoxicity in wild type human MCF7 cells assessed as inhibition of cell growth at 1 uM pre-incubated for 24 hrs before photoirradiation with 430 nm light and measured after 24 hrs post irradiation by MTT assay; format: functional; settings: MCF7, light or radiation study, read-out: GI
[23] = system: L5178Y; assay: Phototoxicity in mouse L5178Y cells assessed as cell viability at 0.5 uM under irradiation by visible light at 337.5 kJ/m2 between 400 to 800 nm; format: functional; settings: light or radiation study, read-out: Activity
[24] = Dark toxicity in human MCF10A cells assessed as reduction in cell viability by MTT assay; format: cell-based, MCF-10A
[25] = Dark toxicity in human SiHa cells assessed as reduction in cell viability by MTT assay; format: cell-based
[26] = system: MCF-10A; assay: Phototoxicity in human MCF10A cells assessed as reduction in cell viability pre-incubated for 1 hr before photo-irradiation with 700 mW-630 nm laser light for 15 mins by MTT assay; format: cell-based; settings: light or radiation study
[27] = Dark toxicity in human HCT116 cells assessed as reduction in cell viability by MTT assay; format: cell-based, HCT-116
[28] = Dark toxicity in human SCC131 cells assessed as reduction in cell viability by MTT assay; format: cell-based
[29] = Dark toxicity in mouse L5178Y cells assessed as cell viability at 0.5 uM; format: cell-based; settings: read-out: Activity
[30] = system: MIA PaCa-2; assay: Phototoxicity in human MIAPaCa2 cells assessed as reduction in cell viability pre-incubated for 1 hr before photo-irradiation with 700 mW-630 nm laser light for 15 mins by MTT assay; format: functional, cell-based; settings: MIA PaCa-2, light or radiation study
[31] = Dark toxicity in human MCF7 cells assessed as reduction in cell viability by MTT assay; format: cell-based
[32] = Dark toxicity in human MDA-MB-231 cells assessed as reduction in cell viability by MTT assay; format: cell-based
[33] = system: HeLa; assay: Phototoxicity in human HeLa cells assessed as reduction in cell viability pre-incubated for 1 hr before photo-irradiation with 700 mW-630 nm laser light for 15 mins by MTT assay; format: functional, cell-based; settings: light or radiation study
[34] = Phototoxicity in human SCC172 cells assessed as reduction in cell viability pre-incubated for 1 hr before photo-irradiation with 700 mW-630 nm laser light for 15 mins by MTT assay; format: functional, cell-based; settings: SCC172, light or radiation study
[35] = Phototoxicity in human SCC131 cells assessed as reduction in cell viability pre-incubated for 1 hr before photo-irradiation with 700 mW-630 nm laser light for 15 mins by MTT assay; format: functional, cell-based; settings: SCC131, light or radiation study
[36] = Dark toxicity in Chinese hamster AS52 cells assessed as cloning efficiency at 1 uM; format: cell-based, Cricetulus griseus
[37] = system: MCF7; assay: Phototoxicity in human MCF7 cells assessed as reduction in cell viability pre-incubated for 1 hr before photo-irradiation with 700 mW-630 nm laser light for 15 mins by MTT assay; format: functional, cell-based; settings: MCF7, light or radiation study
[38] = system: SiHa; assay: Phototoxicity in human SiHa cells assessed as reduction in cell viability pre-incubated for 1 hr before photo-irradiation with 700 mW-630 nm laser light for 15 mins by MTT assay; format: functional, cell-based; settings: light or radiation study
[39] = Dark toxicity in human SCC172 cells assessed as reduction in cell viability by MTT assay; format: cell-based
[40] = system: MDA-MB-231; assay: Phototoxicity in human MDA-MB-231 cells assessed as reduction in cell viability pre-incubated for 1 hr before photo-irradiation with 700 mW-630 nm laser light for 15 mins by MTT assay; format: functional, cell-based; settings: MDA-MB-231, light or radiation study
[41] = Dark toxicity in human HeLa cells assessed as reduction in cell viability by MTT assay; format: cell-based
[42] = Dark toxicity in human MIAPaCa2 cells assessed as reduction in cell viability by MTT assay; format: cell-based, MIA PaCa-2
[43] = system: HCT-116; assay: Phototoxicity in human HCT116 cells assessed as reduction in cell viability pre-incubated for 1 hr before photo-irradiation with 700 mW-630 nm laser light for 15 mins by MTT assay; format: functional, cell-based; settings: HCT-116, light or radiation study
[44] = Phototoxicity in Chinese hamster AS52 cells assessed as cloning efficiency at 1 uM under irradiation by visible light at 337.5 kJ/m2 between 400 to 800 nm; format: functional, Cricetulus griseus
[45] = system: HeLa; assay: Phototoxicity in human HeLa cells assessed as reduction in cell viability in presence of irradiation with 700 to 1000 nm near-infrared light; format: functional, cell-based; settings: light or radiation study
[46] = system: HeLa; assay: Phototoxicity in human HeLa cells assessed as reduction in cell viability in presence of irradiation with white light; format: functional, cell-based; settings: light or radiation study
[47] = Phototoxicity in human keloid fibroblasts assessed as cell viability at 2 to 8 umol/L pre-incubated for 4 hrs before 0.5 J.cm2 UVA irradiation by MTT assay; format: functional

CCN1/C(=C\C=C\c2sc3cc4c(cc3[n+]2CC)sc(/C=C/C=C2\N(CC)c3ccccc3C2(C)C)[n+]4CC)C(C)(C)c2ccccc21
Activity [1]: <= 70% | IC50 at 24 h [2]: 20 µM | IC50 [3]: 5 µM | IC50 at 24 h [4]: 20 µM | IC50 [5]: 5 µM | IC50 at 24 h [6]: 20 µM | IC50 [7]: 20 µM

CCN1/C(=C/C(C)=C/c2sc3ccccc3[n+]2CC)Sc2ccccc21
inhibition at 24 h, 1 µM [8]: 10% | inhibition of growth at 1 µM [9]: 60% | inhibition of growth at 1 µM [10]: 50% | inhibition of growth at 1 µM [11]: 60% | inhibition of growth at 1 µM [12]: 60% | inhibition of growth at 1 µM [13]: > 80% | inhibition of growth at 1 µM [14]: 20% | inhibition at 24 h, 1 µM [15]: 20% | inhibition of growth at 1 µM [16]: 20% | inhibition of growth at 1 µM [17]: 80%

COC(=O)c1ccc(C2=C3C(Br)=c4sc(-c5ccc(Br)s5)cc4=[N+]3[B-](F)(F)n3c2cc2sc(-c4ccc(Br)s4)cc23)cc1
IC50 [18]: 7.12 µM

CCN1C(=O)/C(=C\C=C2/SCCN2C)OC1=S
inhibition at 24 h, 1 µM [8]: 10% | inhibition of growth at 1 µM [19]: > 40% | inhibition of growth at 1 µM [20]: 10% | inhibition at 24 h, 1 µM [15]: 20% | inhibition of growth at 1 µM [21]: 40% | inhibition of growth at 1 µM [22]: 20%

O=C1C(I)=C(O)C(=C2C(=O)C(c3c(O)c(I)c(O)c(I)c3O)=C2O)C(O)=C1I
viability at 0.5 µM [23]: < 10% | IC50 [24]: > 50 µM | IC50 [25]: > 50 µM | IC50 [26]: 44.7 µM | IC50 [27]: > 50 µM | IC50 [28]: > 50 µM | viability at 0.5 µM [29]: 90% | IC50 [30]: 28.3 µM | IC50 [31]: > 50 µM | IC50 [32]: > 50 µM | IC50 [33]: 36 µM | IC50 [34]: 34.7 µM | IC50 [35]: 30.7 µM | Activity [36]: 90% | IC50 [37]: 25.3 µM | IC50 [38]: 33.7 µM | IC50 [39]: > 50 µM | IC50 [40]: 19.8 µM | IC50 [41]: > 50 µM | IC50 [42]: > 50 µM | IC50 [43]: 26 µM | Activity [44]: 10%

Nc1ccc(-c2ccc3nc4ccc(-c5ccc(N)cc5)cc4[s+]c3c2)cc1
EC50 [45]: 8 µM | EC50 [46]: 6 µM

Nc1ccc(-c2nc3ccccc3s2)cc1
Activity [47]: 50%
